Measurements: patent US8722923B2, “Conjugates for treating neurodegenerative diseases and disorders” (Ramot at Tel-Aviv University Ltd., priority 2008, dated 2014)
Where a name gives a salt, the structure may show the parent alone.

assay: Hygroscopicity of acid addition salts; assay type: physicochemical; details: acid addition salts as isolated
Text: The hydrochloride salts of Compounds 6, 8a, 11, 13, 14, 16, 18 and 21 were identified as hygroscopic. […] The basis for this assumption was that the addition salt of an aromatic acid would be less hygroscopic than that of the corresponding hydrochloric acid addition salt. Thus, the butyl ester, Compound 20 was Boc-deprotected with 3 equivalents of benzenesulfonic acid in […].

Row | Compound | hygroscopicity
1 | COC(=O)C(Cc1ccc(O)c(O)c1)NC(=O)CCCN.Cl (stereo not drawn) [Compound 8a, methyl-2-(4-aminobutanamide)-3-(3,4-dihydroxyphenyl)propanoate hydrochloride] | hygroscopic
2 | COC(=O)C(Cc1ccc(OC(=O)CCCN)c(OC(=O)CCCN)c1)NC(=O)CCCN.Cl (stereo not drawn) [Compound 13] | hygroscopic
3 | COC(=O)[C@@H](N)Cc1ccc(O)c(O)c1.Cl [Compound 6, L-DOPA methyl ester hydrochloride] | hygroscopic
4 | COC(=O)C(N)Cc1ccc(OC(=O)CCCN)c(OC(=O)CCCN)c1.Cl (stereo not drawn) [Compound 11, methyl-2-amino-3-(3,4-phenyl-di-[4-aminobutanoate])propanoate-trihydrochloride] | hygroscopic
5 | CCCCOC(=O)C(Cc1ccc(OC(=O)CCCN)c(OC(=O)CCCN)c1)NC(=O)CCCN (stereo not drawn) [Compound 18] | hygroscopic
6 | CCCCOC(=O)C(N)Cc1ccc(O)c(O)c1.Cl (stereo not drawn) [Compound 14, Butyl-2-amino-3-(3,4-dihydroxyphenyl)propanoate hydrochloride] | hygroscopic
7 | Butyl-2-amino-3-(3,4-phenyl-di[4-aminobutanoate])propanoate tri-benzenesulfonate salt [Compound 22] | much less hygroscopic

assay: not given; details: not given

Row | Compound | melting point
8 | CCCCOC(=O)[C@@H](N)Cc1ccc(OC(=O)CCCN)c(OC(=O)CCCN)c1 (as salt: hydrochloride) [AN-490, Butyl-2-amino-3-(3,4-phenyl-di[4-aminobutanoate])propanoate tri-hydrochloride] | 175 to 176 °C
9 | COC(=O)C(Cc1ccc(OC(=O)CCCN)c(OC(=O)CCCN)c1)NC(=O)CCCN.Cl (stereo not drawn) [Compound 13] | 87 °C
10 | COC(=O)C(N)Cc1ccc(OC(=O)CCCN)c(OC(=O)CCCN)c1.Cl (stereo not drawn) [Compound 11, methyl-2-amino-3-(3,4-phenyl-di-[4-aminobutanoate])propanoate-trihydrochloride] | 185 °C
11 | CCCCOC(=O)C(Cc1ccc(O)c(O)c1)NC(=O)CCCN (stereo not drawn) (as salt: hydrochloride) [BL-1023*, Butyl-2-(4-Aminobutanamide)-3-(3,4-dihydroxyphenyl)propanoate hydrochloride] | 77 °C
12 | CCCCOC(=O)C(Cc1ccc(OC(=O)CCCN)c(OC(=O)CCCN)c1)NC(=O)CCCN (stereo not drawn) (as salt: hydrochloride) [Compound 18] | 74 to 75 °C
